Experimental data as given in ChEMBL document CHEMBL1201862, “PubChem BioAssay data set” (2004).
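96-well plates; 48 h exposure; 5 concentrations. Endpoints by linear interpolation between flanking doses. Not reached: highest tested concentration assigned. At the GI50, growth is halved.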 The source made the active and inactive calls. No stated cut-off is given here; in the data, active = GI50 up to about 1.1 µM and inactive = higher.

Columns and labels:
Experiment in all cases: NCI anticancer screen, dose series, 48 h
HOP-92 = tested on: HOP-92
HCT-15 = tested on: HCT-15
SK-MEL-2 = tested on: SK-MEL-2
UACC-257 = tested on: UACC-257
OVCAR-4 = tested on: OVCAR-4
HCT-116 = tested on: HCT-116
SNB-75 = tested on: SNB-75
HOP-18 = tested on: HOP-18
RPMI-8226 = tested on: RPMI-8226
SN12C = tested on: SN12C
KM-20L2 = tested on: KM-20L2
HOP-62 = tested on: HOP-62
IGROV-1 = tested on: IGROV-1
NCI-H522 = tested on: NCI-H522
OVCAR-5 = tested on: OVCAR-5
DMS-273 = tested on: DMS-273
XF498 = tested on: XF498
NCI-H460 = tested on: NCI-H460
DMS-114 = tested on: DMS-114
NCI/ADR-RES = tested on: NCI/ADR-RES
NCI-H23 = tested on: NCI-H23
HCC 2998 = tested on: HCC 2998
CCRF-CEM = tested on: CCRF-CEM
A549 = tested on: A549
Malme-3M = tested on: Malme-3M
DLD-1 = tested on: DLD-1
SK-MEL-5 = tested on: SK-MEL-5
MOLT-4 = tested on: MOLT-4
UACC-62 = tested on: UACC-62
M19-MEL = tested on: M19-MEL
SNB-78 = tested on: SNB-78
NCI-H226 = tested on: NCI-H226
T47D = tested on: T47D
SF-295 = tested on: SF-295
MDA-MB-435 = tested on: MDA-MB-435
OVCAR-8 = tested on: OVCAR-8
RXF 393 = tested on: RXF 393
LXFL 529 = tested on: LXFL 529
HL-60 = tested on: HL-60
MDA-N = tested on: MDA-N
K562 = tested on: K562
MCF7 = tested on: MCF7
SR = tested on: SR
SNB-19 = tested on: SNB-19
PC-3 = tested on: PC-3
CAKI-1 = tested on: CAKI-1
BT-549 = tested on: BT-549
Hs-578T = tested on: Hs-578T
DU-145 = tested on: DU-145
MDA-MB-231 = tested on: MDA-MB-231
OVCAR-3 = tested on: OVCAR-3
RXF 631 = tested on: RXF 631
786-0 = tested on: 786-0
SW-620 = tested on: SW-620
U-251 = tested on: U-251
UO-31 = tested on: UO-31
ACHN = tested on: ACHN
COLO 205 = tested on: COLO 205
SK-OV-3 = tested on: SK-OV-3
SF-268 = tested on: SF-268
M14 = tested on: M14
A498 = tested on: A498
EKVX = tested on: EKVX
SF-539 = tested on: SF-539

## O=C1C=C2C(=CCOC2O)O1 (configuration not stated) [PATULIN]
HOP-92
  GI50: 3.08 µM (inactive)
HCT-15
  GI50: 0.668 µM
SK-MEL-2
  GI50: 1.37 µM (inactive)
UACC-257
  GI50: 723 nM (active)
OVCAR-4
  GI50: 2.84 µM (inactive)
HCT-116
  GI50: 223 nM (active)
SNB-75
  GI50: 4.28 µM (inactive)
HOP-18
  GI50: 1.98 µM (inactive)
RPMI-8226
  GI50: 0.189 µM (active)
SN12C
  GI50: 0.618 µM (active)
KM-20L2
  GI50: 2.28 µM (inactive)
HOP-62
  GI50: 10.6 µM (inactive)
IGROV-1
  GI50: 2.1 µM (inactive)
NCI-H522
  GI50: 0.365 µM (active)
OVCAR-5
  GI50: 7.4 µM (inactive)
DMS-273
  GI50: 0.881 µM (active)
XF498
  GI50: 0.267 µM (active)
NCI-H460
  GI50: 1.16 µM (inactive)
DMS-114
  GI50: 1.08 µM (active)
NCI/ADR-RES
  GI50: 733 nM (active)
NCI-H23
  GI50: 1.15 µM (inactive)
HCC 2998
  GI50: 1.15 µM (inactive)
CCRF-CEM
  GI50: 0.158 µM (active)
A549
  GI50: 4.1 µM (inactive)
Malme-3M
  GI50: 1.12 µM (active)
DLD-1
  GI50: 0.456 µM (active)
SK-MEL-5
  GI50: 1 µM (active)
MOLT-4
  GI50: 0.368 µM (active)
UACC-62
  GI50: 851 nM (active)
M19-MEL
  GI50: 1.29 µM (inactive)
SNB-78
  GI50: 2.32 µM (inactive)
NCI-H226
  GI50: 3.49 µM (inactive)

## COC(=O)C1c2cc3c(c(O)c2C(O)CC1(C)O)C(=O)c1c(O)cc2c(c1C3=O)OC1OC2(C)C(O)C(N(C)C)C1O (configuration not stated)
HOP-92
  GI50: 26.8 µM (inactive)
HCT-15
  GI50: 11.3 µM
SK-MEL-2
  GI50: > 100 µM (inactive)
OVCAR-4
  GI50: 12.9 µM (inactive)
HOP-18
  GI50: > 100 µM (inactive)
RPMI-8226
  GI50: 10.9 µM (inactive)
T47D
  GI50: 1.71 µM (inactive)
KM-20L2
  GI50: > 100 µM (inactive)
HOP-62
  GI50: 12.7 µM (inactive)
SF-295
  GI50: 12.4 µM (inactive)
MDA-MB-435
  GI50: 1.75 µM (inactive)
DMS-273
  GI50: > 100 µM (inactive)
XF498
  GI50: > 100 µM (inactive)
NCI-H460
  GI50: > 100 µM (inactive)
DMS-114
  GI50: > 100 µM (inactive)
NCI/ADR-RES
  GI50: 1640 nM (inactive)
OVCAR-8
  GI50: 11.7 µM (inactive)
RXF 393
  GI50: 12.4 µM (inactive)
CCRF-CEM
  GI50: 6.37 µM (inactive)
LXFL 529
  GI50: > 100 µM (inactive)
HL-60
  GI50: 12.6 µM (inactive)
MDA-N
  GI50: 1.57 µM (inactive)
K562
  GI50: 11.3 µM (inactive)
MCF7
  GI50: 1.35 µM (inactive)
SR
  GI50: 8.49 µM (inactive)
SNB-19
  GI50: 7.06 µM (inactive)
DLD-1
  GI50: > 100 µM (inactive)
PC-3
  GI50: 1.2 µM (inactive)
MOLT-4
  GI50: 6.08 µM (inactive)
CAKI-1
  GI50: 3.28 µM (inactive)
BT-549
  GI50: 4.9 µM (inactive)
M19-MEL
  GI50: > 100 µM (inactive)
Hs-578T
  GI50: 1.43 µM (inactive)
DU-145
  GI50: 1.7 µM (inactive)
MDA-MB-231
  GI50: 1.31 µM (inactive)
SNB-78
  GI50: > 100 µM (inactive)
OVCAR-3
  GI50: 12.7 µM (inactive)

## CC(C)N(C(=O)C12C3C4C1C1C2C3C41C(N)=O)C(C)C (configuration not stated)
HOP-92
  GI50: > 100 µM (inactive)
HCT-15
  GI50: > 100 µM
RXF 631
  GI50: > 100 µM (inactive)
786-0
  GI50: > 100 µM (inactive)
SN12C
  GI50: > 100 µM (inactive)
SW-620
  GI50: > 100 µM (inactive)
KM-20L2
  GI50: > 100 µM (inactive)
HOP-62
  GI50: > 100 µM (inactive)
U-251
  GI50: > 100 µM (inactive)
SF-295
  GI50: > 100 µM (inactive)
UO-31
  GI50: > 100 µM (inactive)
IGROV-1
  GI50: > 100 µM (inactive)
NCI-H522
  GI50: > 100 µM (inactive)
DMS-273
  GI50: > 100 µM (inactive)
ACHN
  GI50: > 100 µM (inactive)
COLO 205
  GI50: > 100 µM (inactive)
DMS-114
  GI50: > 100 µM (inactive)
OVCAR-8
  GI50: > 100 µM (inactive)
HCC 2998
  GI50: > 100 µM (inactive)
CCRF-CEM
  GI50: > 100 µM (inactive)
SK-OV-3
  GI50: > 100 µM (inactive)
LXFL 529
  GI50: > 100 µM (inactive)
SF-268
  GI50: > 100 µM (inactive)
A549
  GI50: > 100 µM (inactive)
K562
  GI50: > 100 µM (inactive)
SR
  GI50: > 100 µM (inactive)
SNB-19
  GI50: > 100 µM (inactive)
Malme-3M
  GI50: > 100 µM (inactive)
M14
  GI50: > 100 µM (inactive)
A498
  GI50: > 100 µM (inactive)
SK-MEL-5
  GI50: > 100 µM (inactive)
MOLT-4
  GI50: > 100 µM (inactive)
CAKI-1
  GI50: > 100 µM (inactive)
M19-MEL
  GI50: > 100 µM (inactive)
EKVX
  GI50: > 100 µM (inactive)
SNB-78
  GI50: > 100 µM (inactive)
SF-539
  GI50: > 100 µM (inactive)
OVCAR-3
  GI50: > 100 µM (inactive)
